How the values were obtained:
Homo sapiens [1] = organism: Homo sapiens; experiment: Selectivity for cathepsin S over cathepsin L
Homo sapiens [2] = organism: Homo sapiens; experiment: Selectivity for cathepsin S over cathepsin K
Homo sapiens [3] = organism: Homo sapiens; experiment: Selectivity for cathepsin S over cathepsin B

CC(C)Cc1ccc(-c2ccccc2OCC=O)c(F)c1F
Activity (Homo sapiens [1]): > 1000
Activity (Homo sapiens [2]): > 100
Activity (Homo sapiens [3]): > 1000

From ChEMBL document CHEMBL1143066, “Characterization and optimization of selective, nonpeptidic inhibitors of cathepsin S with an unprecedented binding mode” (J Med Chem, 2007)
